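Five compound concentrations were applied to cells in 96-well plates for 48 hours; endpoints were derived by simple linear interpolation of the resulting dose-response curve. GI50 marks 50% less growth.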 Activity calls are given as the source filed them. Cut-off read from the data, not from the text of the source: active = GI50 up to about 1.1 µM and inactive = higher.
Legend:
Test in all cases: DTP human tumour cell line panel, 48 h
CAKI-1 = test system: CAKI-1
OVCAR-8 = test system: OVCAR-8
EKVX = test system: EKVX
UACC-257 = test system: UACC-257
RXF 393 = test system: RXF 393
RPMI-8226 = test system: RPMI-8226
CCRF-CEM = test system: CCRF-CEM
SNB-78 = test system: SNB-78
SK-MEL-28 = test system: SK-MEL-28
DMS-273 = test system: DMS-273
SK-OV-3 = test system: SK-OV-3
SF-295 = test system: SF-295
NCI-H23 = test system: NCI-H23
TK-10 = test system: TK-10
NCI-H522 = test system: NCI-H522
UO-31 = test system: UO-31
786-0 = test system: 786-0
MOLT-4 = test system: MOLT-4
SN12C = test system: SN12C
SK-MEL-2 = test system: SK-MEL-2
Malme-3M = test system: Malme-3M
DLD-1 = test system: DLD-1
HCC 2998 = test system: HCC 2998
HT-29 = test system: HT-29
SF-539 = test system: SF-539
SF-268 = test system: SF-268
HCT-15 = test system: HCT-15
NCI-H460 = test system: NCI-H460
SK-MEL-5 = test system: SK-MEL-5
OVCAR-4 = test system: OVCAR-4
HCT-116 = test system: HCT-116
LOX IMVI = test system: LOX IMVI
OVCAR-5 = test system: OVCAR-5
M19-MEL = test system: M19-MEL
M14 = test system: M14
OVCAR-3 = test system: OVCAR-3
SNB-19 = test system: SNB-19
HOP-62 = test system: HOP-62
U-251 = test system: U-251
SNB-75 = test system: SNB-75
COLO 205 = test system: COLO 205
K562 = test system: K562
DMS-114 = test system: DMS-114
A549 = test system: A549
KM12 = test system: KM12
KM-20L2 = test system: KM-20L2
NCI-H226 = test system: NCI-H226
HL-60 = test system: HL-60
UACC-62 = test system: UACC-62
HOP-18 = test system: HOP-18
LXFL 529 = test system: LXFL 529
ACHN = test system: ACHN
IGROV-1 = test system: IGROV-1
HOP-92 = test system: HOP-92
SR = test system: SR
A498 = test system: A498
SW-620 = test system: SW-620

In the case of `OC12CC/C(=N/OCc3ccccc3)CC1c1ccccc12` (configuration not stated), the GI50 (CAKI-1) is reported as > 100 µM (inactive), the GI50 (OVCAR-8) is reported as > 100 µM (inactive) and the GI50 (EKVX) is reported as > 100 µM (inactive). The GI50 (UACC-257) was > 100 µM (inactive), the GI50 (RXF 393) was > 100 µM (inactive) and the GI50 (RPMI-8226) was > 100 µM (inactive). The GI50 (CCRF-CEM) was > 100 µM (inactive), the GI50 (SNB-78) was > 100 µM (inactive) and the GI50 (SK-MEL-28) was > 100 µM (inactive). For the same molecule, the GI50 (DMS-273) was > 100 µM (inactive), the GI50 (SK-OV-3) was > 100 µM (inactive) and the GI50 (SF-295) was > 100 µM (inactive). The GI50 (NCI-H23) was > 100 µM (inactive), the GI50 (TK-10) was > 100 µM (inactive) and the GI50 (NCI-H522) was > 100 µM (inactive). For the same molecule, the GI50 (UO-31) was > 100 µM (inactive), the GI50 (786-0) was > 100 µM (inactive) and the GI50 (MOLT-4) was > 100 µM (inactive). The GI50 (SN12C) was > 100 µM (inactive), the GI50 (SK-MEL-2) was > 100 µM (inactive) and the GI50 (Malme-3M) was > 100 µM (inactive). For the same molecule, the GI50 (DLD-1) was > 100 µM (inactive), the GI50 (HCC 2998) was > 100 µM (inactive) and the GI50 (HT-29) was > 100 µM (inactive). The GI50 (SF-539) was > 100 µM (inactive), the GI50 (SF-268) was > 100 µM (inactive) and the GI50 (HCT-15) was > 100 µM. For the same molecule, the GI50 (NCI-H460) was > 100 µM (inactive), the GI50 (SK-MEL-5) was > 100 µM (inactive) and the GI50 (OVCAR-4) was > 100 µM (inactive). For the same molecule, the GI50 (HCT-116) was > 100 µM (inactive), the GI50 (LOX IMVI) was > 100 µM (inactive) and the GI50 (OVCAR-5) was > 100 µM (inactive). The GI50 (M19-MEL) was > 100 µM (inactive), the GI50 (M14) was > 100 µM (inactive) and the GI50 (OVCAR-3) was > 100 µM (inactive). The GI50 (SNB-19) was > 100 µM (inactive), the GI50 (HOP-62) was > 100 µM (inactive) and the GI50 (U-251) was > 100 µM (inactive). For the same molecule, the GI50 (SNB-75) was 39.7 µM (inactive), the GI50 (COLO 205) was > 100 µM (inactive) and the GI50 (K562) was > 100 µM (inactive). For the same molecule, the GI50 (DMS-114) was > 100 µM (inactive), the GI50 (A549) was > 100 µM (inactive) and the GI50 (KM12) was > 100 µM (inactive). The GI50 (KM-20L2) was > 100 µM (inactive), the GI50 (NCI-H226) was > 100 µM (inactive) and the GI50 (HL-60) was > 100 µM (inactive). The GI50 (UACC-62) was > 100 µM (inactive), the GI50 (HOP-18) was > 100 µM (inactive) and the GI50 (LXFL 529) was > 100 µM (inactive). The GI50 (ACHN) was > 100 µM (inactive) and the GI50 (IGROV-1) was > 100 µM (inactive).

In the case of `CSc1nc(NC2OCC(OC(C)=O)C(OC(C)=O)C2OC(C)=O)c(/N=C\C=N\c2c(NC3OCC(OC(C)=O)C(OC(C)=O)C3OC(C)=O)nc(SC)n(C)c2=O)c(=O)n1C` (configuration not stated), the GI50 (OVCAR-8) is reported as > 100 µM (inactive), the GI50 (HOP-92) is reported as > 100 µM (inactive) and the GI50 (EKVX) is reported as > 100 µM (inactive). The GI50 (UACC-257) was > 100 µM (inactive), the GI50 (RXF 393) was > 100 µM (inactive) and the GI50 (RPMI-8226) was > 100 µM (inactive). The GI50 (SK-MEL-28) was > 100 µM (inactive), the GI50 (DMS-273) was > 100 µM (inactive) and the GI50 (SK-OV-3) was > 100 µM (inactive). For the same molecule, the GI50 (SF-295) was > 100 µM (inactive), the GI50 (NCI-H23) was > 100 µM (inactive) and the GI50 (TK-10) was > 100 µM (inactive). The GI50 (NCI-H522) was > 100 µM (inactive), the GI50 (UO-31) was > 100 µM (inactive) and the GI50 (786-0) was > 100 µM (inactive). The GI50 (SN12C) was > 100 µM (inactive), the GI50 (SK-MEL-2) was > 100 µM (inactive) and the GI50 (Malme-3M) was > 100 µM (inactive). For the same molecule, the GI50 (DLD-1) was > 100 µM (inactive), the GI50 (HCC 2998) was > 100 µM (inactive) and the GI50 (HT-29) was > 100 µM (inactive). For the same molecule, the GI50 (SF-539) was > 100 µM (inactive), the GI50 (SF-268) was > 100 µM (inactive) and the GI50 (HCT-15) was > 100 µM. The GI50 (NCI-H460) was > 100 µM (inactive), the GI50 (SK-MEL-5) was > 100 µM (inactive) and the GI50 (OVCAR-4) was > 100 µM (inactive). For the same molecule, the GI50 (HCT-116) was > 100 µM (inactive), the GI50 (LOX IMVI) was > 100 µM (inactive) and the GI50 (OVCAR-5) was > 100 µM (inactive). The GI50 (M19-MEL) was > 100 µM (inactive), the GI50 (M14) was > 100 µM (inactive) and the GI50 (OVCAR-3) was > 100 µM (inactive). The GI50 (SNB-19) was 38.4 µM (inactive), the GI50 (HOP-62) was > 100 µM (inactive) and the GI50 (U-251) was > 100 µM (inactive). For the same molecule, the GI50 (SR) was > 100 µM (inactive), the GI50 (SNB-75) was > 100 µM (inactive) and the GI50 (COLO 205) was > 100 µM (inactive). For the same molecule, the GI50 (K562) was > 100 µM (inactive), the GI50 (DMS-114) was > 100 µM (inactive) and the GI50 (A549) was > 100 µM (inactive). The GI50 (KM12) was > 100 µM (inactive), the GI50 (KM-20L2) was > 100 µM (inactive) and the GI50 (HL-60) was > 100 µM (inactive). The GI50 (UACC-62) was > 100 µM (inactive), the GI50 (HOP-18) was > 100 µM (inactive) and the GI50 (A498) was > 100 µM (inactive). The GI50 (LXFL 529) was > 100 µM (inactive), the GI50 (SW-620) was > 100 µM (inactive) and the GI50 (ACHN) was > 100 µM (inactive). The GI50 (IGROV-1) was > 100 µM (inactive).

With `c1ccc2[nH]c(CNc3ccc(C4C[Se]N=N4)cc3)nc2c1` (configuration not stated) the GI50 (CAKI-1) was > 100 µM (inactive), the GI50 (OVCAR-8) was 28.5 µM (inactive) and the GI50 (HOP-92) was > 100 µM (inactive). The GI50 (RXF 393) was > 100 µM (inactive), the GI50 (RPMI-8226) was 25.6 µM (inactive) and the GI50 (CCRF-CEM) was 25.7 µM (inactive). For the same molecule, the GI50 (SK-MEL-28) was 78.9 µM (inactive), the GI50 (DMS-273) was 67.1 µM (inactive) and the GI50 (SK-OV-3) was > 100 µM (inactive). The GI50 (SF-295) was 28.4 µM (inactive), the GI50 (NCI-H23) was 30.3 µM (inactive) and the GI50 (TK-10) was > 100 µM (inactive). For the same molecule, the GI50 (NCI-H522) was 29 µM (inactive), the GI50 (UO-31) was 38.9 µM (inactive) and the GI50 (786-0) was > 100 µM (inactive). The GI50 (MOLT-4) was 9.02 µM (inactive), the GI50 (SN12C) was 86.9 µM (inactive) and the GI50 (SK-MEL-2) was 33 µM (inactive). For the same molecule, the GI50 (Malme-3M) was 25.3 µM (inactive), the GI50 (DLD-1) was > 100 µM (inactive) and the GI50 (HCC 2998) was > 100 µM (inactive). For the same molecule, the GI50 (HT-29) was > 100 µM (inactive), the GI50 (SF-539) was > 100 µM (inactive) and the GI50 (SF-268) was 47.3 µM (inactive). The GI50 (HCT-15) was > 100 µM, the GI50 (NCI-H460) was 41.2 µM (inactive) and the GI50 (SK-MEL-5) was 15.1 µM (inactive). For the same molecule, the GI50 (OVCAR-4) was 27.5 µM (inactive), the GI50 (HCT-116) was 41.2 µM (inactive) and the GI50 (LOX IMVI) was 40.6 µM (inactive). The GI50 (OVCAR-5) was > 100 µM (inactive), the GI50 (M19-MEL) was 41.3 µM (inactive) and the GI50 (M14) was 67.3 µM (inactive). The GI50 (OVCAR-3) was 21.7 µM (inactive), the GI50 (SNB-19) was 84.1 µM (inactive) and the GI50 (HOP-62) was > 100 µM (inactive). For the same molecule, the GI50 (U-251) was 55.8 µM (inactive), the GI50 (SR) was 9.86 µM (inactive) and the GI50 (SNB-75) was 43.2 µM (inactive). The GI50 (COLO 205) was 48.6 µM (inactive), the GI50 (K562) was 27.9 µM (inactive) and the GI50 (DMS-114) was 21.8 µM (inactive). The GI50 (A549) was > 100 µM (inactive), the GI50 (KM12) was 26.4 µM (inactive) and the GI50 (HL-60) was 28.2 µM (inactive). The GI50 (UACC-62) was 24.7 µM (inactive), the GI50 (HOP-18) was > 100 µM (inactive) and the GI50 (A498) was > 100 µM (inactive). For the same molecule, the GI50 (LXFL 529) was 18.7 µM (inactive), the GI50 (SW-620) was 95.7 µM (inactive) and the GI50 (ACHN) was > 100 µM (inactive). The GI50 (IGROV-1) was > 100 µM (inactive).
